Entries after “also recorded” stand apart in the source; their conditions may differ.
Legend:
HEK293-NK1R cells = test: SP-induced membrane blebbing in HEK293-NK1R cells (phase-contrast / DIC / confocal microscopy); type: cell-based; settings: for effect of colchicine on SP-induced blebbing: colchicine pretreatment
T cells = settings: ref [26]; cited from earlier work
Excerpt: (§1) It has been shown that Rho GTPases are regulated by microtubule dynamics. […] One of the major intracellular signaling molecules involved in the regulation of tubulin function is p21- activated kinase 1 (PAK), which interacts with a variety of other proteins ...

RhoA = settings: microtubule depolymerizing reagent; ref [24], [25]; cited from earlier work
Excerpt: as §1

[1] = system: myosin light chain 2 (MLC2) (Ser19); type: cell-based, human
Protocol: Cells were lysed in lithium dodecyl sulfate (LDS) sample buffer (Invitrogen, Carlsbad, CA), and lysed using a sonic dismembrator model 100 (Fisher Scientific, Hampton, NH). Cell extracts were subjected to LDS polyacrylamide gel electrophoresis and transferred to polyvinylidene difluoride membranes. After blocking with 5% nonfat dry milk in 0.1% Tween 20/TBS, membranes were incubated with the primary antibody. […] The following non phospho-specific antibodies were used: Beta-Actin and PAK1/2/3 (Cell Signaling Technology, Beverly, MA). Secondary antibodies conjugated to horseradish peroxidase were either anti-rabbit (Biorad, Hercules, CA), or anti-mouse (Cell Signaling Technology, Beverly, MA). Bands were visualized by enhanced chemiluminescence using SuperSignal® West Pico Chemiluminescent Substrate (Thermo Scientific, Rockford, IL) on a VersaDoc Imager (BioRad, Hercules, CA).

Oc1ccc2ccccc2c1SSc1c(O)ccc2ccccc12 [IPA3, 1, 1′-Dithiodi-2-naphthtol]
effect of IPA3 on SP-induced blebbing (HEK293-NK1R cells; IPA3 pretreatment, phase-contrast): not in HEK293 cells; also recorded: no effect on HEK293- NK1R cell's ability to bleb

COC(=O)Nc1nc2ccc(C(=O)c3cccs3)cc2[nH]1 [Nocodazole]
effect of nocodazole on T cell migratory phenotype (T cells): converts T cells from the classical lamellipodial/uropod migratory phenotype to a blebbing migratory phenotype | RhoA activation by nocodazole (RhoA): induces RhoA activation

COc1cc2c(c(OC)c1OC)-c1ccc(OC)c(=O)cc1[C@@H](NC(C)=O)CC2 [colchicine]
cell morphology after colchicine (HEK293-NK1R cells; colchicine): causing the cells to appear less adherent and to round up | effect of colchicine on SP-induced blebbing (HEK293-NK1R cells): not able to block the SP-induced blebbing | effect of colchicine on SP-induced blebbing (HEK293-NK1R cells; listed as Colchicine): unable to block bleb formation

C3 transferase
effect of C3 transferase on MLC phosphorylation [1]: decrease in MLC phosphorylation
